# Tested on: 695427-040-R-J1-PDC complex spheroid viability
# Experiment: Anticancer human tumor 695427-040-R-J1-PDC patient-derived colon adenocarcinoma cell line growth inhibition [RAS]
# Details: for IC50: curve of first compound; for viability, T/C: stronger effect = lower value
# In short: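 Tumour cells grown as complex spheroids with HUVEC endothelial cells and mesenchymal stem cells, treated with RAS pathway inhibitor combinations. Each agent spans half-log steps from near clinical Cmax, or 10 microM where Cmax is unknown.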
# [1] = second compound 0.000949 µM, first compound 0.0316 µM
# [2] = second compound 0.000949 µM, first compound 0.1 µM
# [3] = second compound 0.000949 µM, first compound 0.316 µM
# [4] = second compound 0.000949 µM, first compound 1 µM
# [5] = second compound 0.003 µM, first compound 0.0316 µM
# [6] = second compound 0.003 µM, first compound 0.1 µM
# [7] = second compound 0.003 µM, first compound 0.316 µM
# [8] = second compound 0.003 µM, first compound 1 µM
# [9] = second compound 0.00949 µM, first compound 0.0316 µM
# [10] = second compound 0.00949 µM, first compound 0.1 µM
# [11] = second compound 0.00949 µM, first compound 0.316 µM
# [12] = second compound 0.00949 µM, first compound 1 µM
# [13] = second compound 0.03 µM, first compound 0.0316 µM
# [14] = second compound 0.03 µM, first compound 0.1 µM
# [15] = second compound 0.03 µM, first compound 0.316 µM
# [16] = second compound 0.03 µM, first compound 1 µM
# [17] = second compound 0.0949 µM, first compound 0.0316 µM
# [18] = second compound 0.0949 µM, first compound 0.1 µM
# [19] = second compound 0.0949 µM, first compound 0.316 µM
# [20] = second compound 0.0949 µM, first compound 1 µM
# [21] = second compound 0.3 µM, first compound 0.0316 µM
# [22] = second compound 0.3 µM, first compound 0.1 µM
# [23] = second compound 0.3 µM, first compound 0.316 µM
# [24] = second compound 0.3 µM, first compound 1 µM
# 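Note: viability read after seven days of drug exposure.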
# 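Throughout, for viability, T/C: 100% = DMSO vehicle control viability.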
smiles,measurement,setting,value
Nc1ccn(C2OC(CO)C(O)C2(F)F)c(=O)n1 (centres undefined) + CCn1c(-c2cc(N3CCN(C)CC3)cnc2C(C)OC)c2c3cc(ccc31)-c1csc(n1)CC(NC(=O)C1CC1C)C(=O)N1CCCC(N1)C(=O)OCC(C)(C)C2,IC50,second compound 0.000949 µM,> 1000 nM
same,IC50,second compound 0.003 µM,524 nM
same,IC50,second compound 0.00949 µM,593 nM
same,IC50,second compound 0.03 µM,112 nM
same,IC50,second compound 0.0949 µM,< 3.16 nM
same,IC50,second compound 0.3 µM,< 3.16 nM
same,"viability, T/C","second compound 0.000949 µM, first compound 0.00316 µM",69.9%
same,"viability, T/C","second compound 0.000949 µM, first compound 0.01 µM",97.5%
same,"viability, T/C",[1],81.8%
same,"viability, T/C",[2],69.3%
same,"viability, T/C",[3],67%
same,"viability, T/C",[4],54.2%
same,"viability, T/C","second compound 0.003 µM, first compound 0.00316 µM",109%
same,"viability, T/C","second compound 0.003 µM, first compound 0.01 µM",88.6%
same,"viability, T/C",[5],78.5%
same,"viability, T/C",[6],66.2%
same,"viability, T/C",[7],54.5%
same,"viability, T/C",[8],44.2%
same,"viability, T/C","second compound 0.00949 µM, first compound 0.00316 µM",80%
same,"viability, T/C","second compound 0.00949 µM, first compound 0.01 µM",77.7%
same,"viability, T/C",[9],60.9%
same,"viability, T/C",[10],58.5%
same,"viability, T/C",[11],57.5%
same,"viability, T/C",[12],45.3%
same,"viability, T/C","second compound 0.03 µM, first compound 0.00316 µM",56.4%
same,"viability, T/C","second compound 0.03 µM, first compound 0.01 µM",63.1%
same,"viability, T/C",[13],52.2%
same,"viability, T/C",[14],47.1%
same,"viability, T/C",[15],48.4%
same,"viability, T/C",[16],37.5%
same,"viability, T/C","second compound 0.0949 µM, first compound 0.00316 µM",42.4%
same,"viability, T/C","second compound 0.0949 µM, first compound 0.01 µM",47.1%
same,"viability, T/C",[17],40.6%
same,"viability, T/C",[18],36%
same,"viability, T/C",[19],25.7%
same,"viability, T/C",[20],30.1%
same,"viability, T/C","second compound 0.3 µM, first compound 0.00316 µM",34.5%
same,"viability, T/C","second compound 0.3 µM, first compound 0.01 µM",40.1%
same,"viability, T/C",[21],34.8%
same,"viability, T/C",[22],33.1%
same,"viability, T/C",[23],31.6%
same,"viability, T/C",[24],26.5%
CCC(CC)c1cc(NC2CCC(N)C2)n2nccc2n1 (centres undefined) + CCn1c(-c2cc(N3CCN(C)CC3)cnc2C(C)OC)c2c3cc(ccc31)-c1csc(n1)CC(NC(=O)C1CC1C)C(=O)N1CCCC(N1)C(=O)OCC(C)(C)C2,IC50,second compound 0.000949 µM,1750 nM
same,IC50,second compound 0.003 µM,1400 nM
same,IC50,second compound 0.00949 µM,732 nM
same,IC50,second compound 0.03 µM,1210 nM
same,IC50,second compound 0.0949 µM,< 31.6 nM
same,IC50,second compound 0.3 µM,< 31.6 nM
same,"viability, T/C",[1],104%
same,"viability, T/C",[2],84.6%
same,"viability, T/C",[3],83.7%
same,"viability, T/C",[4],84.6%
same,"viability, T/C","second compound 0.000949 µM, first compound 3.16 µM",13.7%
same,"viability, T/C","second compound 0.000949 µM, first compound 10 µM",12.3%
same,"viability, T/C",[5],92.8%
same,"viability, T/C",[6],99.8%
same,"viability, T/C",[7],85.1%
same,"viability, T/C",[8],66.4%
same,"viability, T/C","second compound 0.003 µM, first compound 3.16 µM",9.9%
same,"viability, T/C","second compound 0.003 µM, first compound 10 µM",10.9%
same,"viability, T/C",[9],90.3%
same,"viability, T/C",[10],72.1%
same,"viability, T/C",[11],69.9%
same,"viability, T/C",[12],45.8%
same,"viability, T/C","second compound 0.00949 µM, first compound 3.16 µM",10.7%
same,"viability, T/C","second compound 0.00949 µM, first compound 10 µM",12.9%
same,"viability, T/C",[13],51%
same,"viability, T/C",[14],56.1%
same,"viability, T/C",[15],64.8%
same,"viability, T/C",[16],58.7%
same,"viability, T/C","second compound 0.03 µM, first compound 3.16 µM",7.23%
same,"viability, T/C","second compound 0.03 µM, first compound 10 µM",15.1%
same,"viability, T/C",[17],44.6%
same,"viability, T/C",[18],47.3%
same,"viability, T/C",[19],43.9%
same,"viability, T/C",[20],41.6%
same,"viability, T/C","second compound 0.0949 µM, first compound 3.16 µM",11%
same,"viability, T/C","second compound 0.0949 µM, first compound 10 µM",15.3%
same,"viability, T/C",[21],29.7%
same,"viability, T/C",[22],39.4%
same,"viability, T/C",[23],45.8%
same,"viability, T/C",[24],27.8%
same,"viability, T/C","second compound 0.3 µM, first compound 3.16 µM",6.23%
same,"viability, T/C","second compound 0.3 µM, first compound 10 µM",15.5%

# Reference: PubChem BioAssay AID2060888 (Molecular Pharmacology Branch, DTP, NCI, 2025)
